# Results taken from patent US8802597B2, “Herbicidal pyrimidines” (E I du Pont de Nemours and Company, priority 2003, dated 2014).
# Where two headings read alike, the source gives them in different places.
# Tests used:
# Experiment in all cases: Test C pre/postemergence
# Format in all cases: in vivo
# [1] = tested on: johnsongrass (Sorghum halepense); conditions: Sorghum halepense; for pest or weed control at 31 g/ha: 31 g ai/ha; for pest or weed control at 62 g/ha: 62 g ai/ha; for pest or weed control at 125 g/ha: 125 g ai/ha
# How it was run: (§1)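 Greenhouse pot test: seeds treated preemergence, or plants at 2–18 cm (1- to 4-leaf stage) treated postemergence, with compound in non-phytotoxic solvent plus surfactant. Visual rating versus untreated controls after 12–14 days, scale 0 (no effect) to 100 (complete control); dash means not tested.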
# kochia (Kochia scoparia) = conditions: Bassia scoparia; for pest or weed control at 31 g/ha: 31 g ai/ha; for pest or weed control at 62 g/ha: 62 g ai/ha; for pest or weed control at 125 g/ha: 125 g ai/ha
# How it was run: as §1
# [2] = tested on: common (oilseed) sunflower (Helianthus annuus); conditions: Helianthus annuus, pre-emergence, Preemergence, scale 0 to 100, 0 no effect, 100 complete control, read-out: Plant response rating, Sunflower
# How it was run: as §1
# [3] = tested on: velvetleaf (Abutilon theophrasti); conditions: Abutilon theophrasti; for pest or weed control at 31 g/ha: 31 g ai/ha; for pest or weed control at 62 g/ha: 62 g ai/ha
# How it was run: as §1
# [4] = tested on: pigweed (Amaranthus retroflexus); conditions: Amaranthus retroflexus; for pest or weed control at 31 g/ha: 31 g ai/ha; for pest or weed control at 62 g/ha: 62 g ai/ha
# How it was run: as §1
# [5] = tested on: giant foxtail (Setaria faberii); conditions: Setaria faberi; for pest or weed control at 125 g/ha: 125 g ai/ha; for pest or weed control at 31 g/ha: 31 g ai/ha; for pest or weed control at 62 g/ha: 62 g ai/ha
# How it was run: as §1
# [6] = tested on: morningglory (Ipomoea coccinea); conditions: Ipomoea, post-emergence, Postemergence, read-out: Plant response rating (scale of 0 to 100), Morningglory
# How it was run: as §1
# [7] = post-emergence, Postemergence, read-out: Plant response rating (scale of 0 to 100), Johnsongrass
# [8] = pre-emergence, Preemergence, scale 0 to 100, 0 no effect, 100 complete control, read-out: Plant response rating, Johnsongrass
# [9] = post-emergence, Postemergence, read-out: Plant response rating (scale of 0 to 100), Kochia
# [10] = pre-emergence, Preemergence, scale 0 to 100, 0 no effect, 100 complete control, read-out: Plant response rating, Kochia
# [11] = post-emergence, Postemergence, read-out: Plant response rating (scale of 0 to 100), Velvetleaf
# [12] = pre-emergence, Preemergence, scale 0 to 100, 0 no effect, 100 complete control, read-out: Plant response rating, Velvetleaf
# [13] = post-emergence, Postemergence, read-out: Plant response rating (scale of 0 to 100), Pigweed
# [14] = pre-emergence, Preemergence, scale 0 to 100, 0 no effect, 100 complete control, read-out: Plant response rating, Pigweed
# [15] = post-emergence, Postemergence, read-out: Plant response rating (scale of 0 to 100), Foxtail, Giant
# [16] = pre-emergence, Preemergence, scale 0 to 100, 0 no effect, 100 complete control, read-out: Plant response rating, Foxtail, Giant
compound,measurement,setting,value
"Nc1nc(C2CC2)nc(C(=O)OCc2ccccc2)c1Cl [Compound 78, phenylmethyl 6-amino-5-chloro-2-cyclopropyl-4-pyrimidinecarboxylate]",pest or weed control at 31 g/ha,[1]; [7],10%
same,pest or weed control at 62 g/ha,[1]; [7],10%
same,pest or weed control at 125 g/ha,"[1]; post-emergence, Postemergence, scale 0 to 100 (0 no effect, 100 complete control), read-out: Johnsongrass plant response rating",20%
same,pest or weed control at 250 g/ha,"[1]; post-emergence, Postemergence, 250 g ai/ha, scale 0 to 100, read-out: Plant response rating, Johnsongrass",40%
same,pest or weed control at 16 g/ha,"[1]; pre-emergence, Preemergence, 16 g ai/ha, scale 0 to 100, 0 no effect, 100 complete control, read-out: Plant response rating, Johnsongrass",0%
same,pest or weed control at 31 g/ha,[1]; [8],10%
same,pest or weed control at 62 g/ha,[1]; [8],20%
same,pest or weed control at 125 g/ha,"[1]; pre-emergence, Preemergence, scale 0 to 100, read-out: Plant response rating, Johnsongrass",50%
same,pest or weed control at 31 g/ha,kochia (Kochia scoparia); [9],90%
same,pest or weed control at 62 g/ha,kochia (Kochia scoparia); [9],90%
same,pest or weed control at 125 g/ha,"kochia (Kochia scoparia); post-emergence, Postemergence, scale 0 to 100 (0 no effect, 100 complete control), read-out: Kochia plant response rating",95%
same,pest or weed control at 250 g/ha,"kochia (Kochia scoparia); post-emergence, Postemergence, 250 g ai/ha, scale 0 to 100, read-out: Plant response rating, Kochia",95%
same,pest or weed control at 16 g/ha,"kochia (Kochia scoparia); pre-emergence, Preemergence, 16 g ai/ha, scale 0 to 100, 0 no effect, 100 complete control, read-out: Plant response rating, Kochia",70%
same,pest or weed control at 31 g/ha,kochia (Kochia scoparia); [10],80%
same,pest or weed control at 62 g/ha,kochia (Kochia scoparia); [10],100%
same,pest or weed control at 125 g/ha,"kochia (Kochia scoparia); pre-emergence, Preemergence, scale 0 to 100, read-out: Plant response rating, Kochia",100%
same,pest or weed control at 16 g/ha,[2]; 16 g ai/ha,50%
same,pest or weed control at 31 g/ha,[2]; 31 g ai/ha,70%
same,pest or weed control at 62 g/ha,[2]; 62 g ai/ha,100%
same,pest or weed control at 31 g/ha,[3]; [11],50%
same,pest or weed control at 62 g/ha,[3]; [11],80%
same,pest or weed control at 125 g/ha,"[3]; post-emergence, Postemergence, 125 g ai/ha, scale 0 to 100 (0 no effect, 100 complete control), read-out: Velvetleaf plant response rating",95%
same,pest or weed control at 250 g/ha,"[3]; post-emergence, Postemergence, 250 g ai/ha, scale 0 to 100, read-out: Plant response rating, Velvetleaf",100%
same,pest or weed control at 16 g/ha,"[3]; pre-emergence, Preemergence, 16 g ai/ha, scale 0 to 100, 0 no effect, 100 complete control, read-out: Plant response rating, Velvetleaf",10%
same,pest or weed control at 31 g/ha,[3]; [12],55%
same,pest or weed control at 62 g/ha,[3]; [12],70%
same,pest or weed control at 31 g/ha,[4]; [13],50%
same,pest or weed control at 62 g/ha,[4]; [13],80%
same,pest or weed control at 125 g/ha,"[4]; post-emergence, Postemergence, 125 g ai/ha, scale 0 to 100 (0 no effect, 100 complete control), read-out: Pigweed plant response rating",95%
same,pest or weed control at 250 g/ha,"[4]; post-emergence, Postemergence, 250 g ai/ha, scale 0 to 100, read-out: Plant response rating, Pigweed",100%
same,pest or weed control at 16 g/ha,"[4]; pre-emergence, Preemergence, 16 g ai/ha, scale 0 to 100, 0 no effect, 100 complete control, read-out: Plant response rating, Pigweed",55%
same,pest or weed control at 31 g/ha,[4]; [14],60%
same,pest or weed control at 62 g/ha,[4]; [14],70%
same,pest or weed control at 125 g/ha,"[5]; post-emergence, Postemergence, scale 0 to 100 (0 no effect, 100 complete control), read-out: Foxtail, Giant plant response rating",65%
same,pest or weed control at 31 g/ha,[5]; [15],0%
same,pest or weed control at 62 g/ha,[5]; [15],30%
same,pest or weed control at 250 g/ha,"[5]; post-emergence, Postemergence, 250 g ai/ha, scale 0 to 100, read-out: Plant response rating, Foxtail, Giant",70%
same,pest or weed control at 16 g/ha,"[5]; pre-emergence, Preemergence, 16 g ai/ha, scale 0 to 100, 0 no effect, 100 complete control, read-out: Plant response rating, Foxtail, Giant",0%
same,pest or weed control at 31 g/ha,[5]; [16],0%
same,pest or weed control at 62 g/ha,[5]; [16],0%
same,pest or weed control at 125 g/ha,"[5]; pre-emergence, Preemergence, scale 0 to 100, read-out: Plant response rating, Foxtail, Giant",0%
same,pest or weed control at 31 g/ha,[6]; 31 g ai/ha,90%
same,pest or weed control at 62 g/ha,[6]; 62 g ai/ha,90%
